Data as given in patent US9145397B2, “Process for the preparation of 1-(2-methyl-4-(2,3,4,5-tetrahydro-1-benzazepin-1-ylcarbonyl) benzylcarbamoyl)-L-proline-N, N-dimethylamide” (Vantia Limited, priority 2011, dated 2015).

Assays:
vasopressin V2 receptor = molecular target: T1, vasopressin V2 receptor (Rattus norvegicus, UniProt Q00788); assay: in vivo assay described in PCT/GB2001/000023 (inhibition of urine output); conditions: at 1 hour; dosed at 1 mg/Kg
T1 construct: from tissue; host or cells: whole animal, in vivo (endogenous receptor)
T1 sequence (Q00788 whole entry): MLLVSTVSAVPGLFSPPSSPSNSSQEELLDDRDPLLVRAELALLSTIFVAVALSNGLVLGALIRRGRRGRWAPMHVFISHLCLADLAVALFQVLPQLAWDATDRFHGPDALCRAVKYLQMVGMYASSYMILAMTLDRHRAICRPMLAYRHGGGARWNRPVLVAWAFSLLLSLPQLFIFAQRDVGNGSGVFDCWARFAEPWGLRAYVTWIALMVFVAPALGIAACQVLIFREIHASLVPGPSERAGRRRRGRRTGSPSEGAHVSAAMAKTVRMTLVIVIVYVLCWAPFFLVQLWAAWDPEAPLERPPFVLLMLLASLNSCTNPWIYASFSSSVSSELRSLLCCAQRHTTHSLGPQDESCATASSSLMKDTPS
Description: The ability of the crystalline form of the invention to agonise the vasopressin V2 receptor may be determined using the in vivo assay described in PCT/GB2001/000023.

[1] = Gravimetric Vapour Sorption Analysis (GVA); type: physicochemical; conditions: amorphous solid prepared as in PCT/GB2001/000023
Description: 1-(2-methyl-4-(2,3,4,5-tetrahydro-1-benzazepin-1-ylcarbonyl)benzylcarbamoyl)-L-proline-N,N-dimethylamide was first described in international patent application WO 2001/049682 (PCT/GB2001/000023). […] Moreover, scanning electron micrographs (SEM) of this amorphous form show it to consist of irregular, predominantly large (>5 μm in diameter) aggregates. These properties of the amorphous form render it less suitable for use in a manufacturing process.

Row | inhibition of urine output (vasopressin V2 receptor) [%] | hygroscopicity by Gravimetric Vapour Sorption Analysis (GVA) [1] | SMILES
1 | 82 | – | Cc1cc(C(=O)N2CCCCc3ccccc32)ccc1CNC(=O)N1CCC[C@H]1C(=O)N(C)C [1-(2-methyl-4-(2,3,4,5-tetrahydro-1-benzazepin-1-ylcarbonyl)benzylcarbamoyl)-L-proline-N,N-dimethylamide]
2 | – | hygroscopic | Cc1cc(C(=O)N2CCCCc3ccccc32)ccc1CNC(=O)N1CCC[C@H]1C(=O)N(C)C [amorphous form, 1-(2-methyl-4-(2,3,4,5-tetrahydro-1-benzazepin-1-ylcarbonyl)benzylcarbamoyl)-L-proline-N,N-dimethylamide]
